19 molecules from the NIST ThermoML archive (doi:10.1016/j.jct.2010.12.020) can be followed below.

Where “and” joins values, the source holds several entries; their conditions need not be identical. Equal entries are not always repeated. ± gives the expanded uncertainty stated by the source.

The nature of this series: activity coefficient (dimensionless); of the first substance listed, at infinite dilution; xn = mol fraction of the nth substance listed. The following applies: 101 kPa, Liquid, Chromatography, x1 = 0.

Turning to `C#CCCCC` [1-hexyne] + CCCCCCCC[N+](C)(CCCCCCCC)CCCCCCCC.O=C(O)c1ccccc1[S-], the activity coefficient (303.15 K) is 0.7 and 0.69; the activity coefficient (313.15 K) was found to be 0.72 ± 0.09; the activity coefficient (323.15 K) worked out at 0.75 ± 0.09.

In the case of `C#CCCCCCC` [1-octyne] + CCCCCCCC[N+](C)(CCCCCCCC)CCCCCCCC.O=C(O)c1ccccc1[S-], the activity coefficient is 0.88 and 0.84 (303.15 K); 0.92 and 0.9 (313.15 K); 0.94 ± 0.11 (323.15 K).

As to `C=CCCC` [1-pentene] + CCCCCCCC[N+](C)(CCCCCCCC)CCCCCCCC.O=C(O)c1ccccc1[S-], the activity coefficient by setting is: (303.15 K) 1.39 and 1.4; (313.15 K) 1.36 ± 0.17; (323.15 K) 1.33 and 1.28.

As for `C#CCCC` [1-pentyne] + CCCCCCCC[N+](C)(CCCCCCCC)CCCCCCCC.O=C(O)c1ccccc1[S-], the activity coefficient runs as follows: (303.15 K) 0.63 ± 0.08; (313.15 K) 0.65 ± 0.08; (323.15 K) 0.67 ± 0.08.

Regarding `CC(C)=O` [acetone] + CCCCCCCC[N+](C)(CCCCCCCC)CCCCCCCC.O=C(O)c1ccccc1[S-], the activity coefficient (303.15 K) is 0.69 and 0.65; the activity coefficient (313.15 K) was 0.66 and 0.63; the activity coefficient (323.15 K) is 0.64 and 0.61.

With `c1ccccc1` [benzene] + CCCCCCCC[N+](C)(CCCCCCCC)CCCCCCCC.O=C(O)c1ccccc1[S-], the activity coefficient is 0.51 and 0.48 (303.15 K); 0.5 and 0.48 (313.15 K); 0.5 and 0.47 (323.15 K).

Regarding `CCC(C)=O` [butanone] + CCCCCCCC[N+](C)(CCCCCCCC)CCCCCCCC.O=C(O)c1ccccc1[S-], the activity coefficient (303.15 K) is 0.66 and 0.62; the activity coefficient (313.15 K) was 0.64 and 0.61; the activity coefficient (323.15 K) is 0.62 and 0.59.

Consider `C1CCCCCC1` [cycloheptane] + CCCCCCCC[N+](C)(CCCCCCCC)CCCCCCCC.O=C(O)c1ccccc1[S-], for which the activity coefficient (303.15 K) was 1.42 and 1.4; the activity coefficient (313.15 K) is 1.36 and 1.32; the activity coefficient (323.15 K) was 1.31 and 1.25.

In the case of `C1CCCCC1` [cyclohexane] + CCCCCCCC[N+](C)(CCCCCCCC)CCCCCCCC.O=C(O)c1ccccc1[S-], the activity coefficient (303.15 K) is 1.34 and 1.32; the activity coefficient (313.15 K) was 1.28 and 1.26; the activity coefficient (323.15 K) was 1.23 and 1.19.

In the case of `C1CCCCCCC1` [cyclooctane] + CCCCCCCC[N+](C)(CCCCCCCC)CCCCCCCC.O=C(O)c1ccccc1[S-], the activity coefficient is, setting by setting: (303.15 K) 1.57 ± 0.19; (313.15 K) 1.5 and 1.45; (323.15 K) 1.44 and 1.37.

In the case of `C1CCCC1` [cyclopentane] + CCCCCCCC[N+](C)(CCCCCCCC)CCCCCCCC.O=C(O)c1ccccc1[S-], the activity coefficient reads like this: (303.15 K) 1.1 and 1.08; (313.15 K) 1.07 and 1.05; (323.15 K) 1.04 and 1.

On to `CCCCCCC` [heptane] + CCCCCCCC[N+](C)(CCCCCCCC)CCCCCCCC.O=C(O)c1ccccc1[S-], for which the activity coefficient by setting is: (303.15 K) 2.37 and 2.28; (313.15 K) 2.29 and 2.22; (323.15 K) 2.21 and 2.15.

In the case of `C=CCCCC` [hex-1-ene] + CCCCCCCC[N+](C)(CCCCCCCC)CCCCCCCC.O=C(O)c1ccccc1[S-], the activity coefficient was 1.57 and 1.55 (303.15 K); 1.53 and 1.51 (313.15 K); 1.51 and 1.46 (323.15 K).

Consider `CCCCCC` [hexane] + CCCCCCCC[N+](C)(CCCCCCCC)CCCCCCCC.O=C(O)c1ccccc1[S-], for which the activity coefficient is, setting by setting: (303.15 K) 2.07 ± 0.26; (313.15 K) 1.98 and 1.96; (323.15 K) 1.92 and 1.87.

Regarding `CCCCCCCCC` [nonane] + CCCCCCCC[N+](C)(CCCCCCCC)CCCCCCCC.O=C(O)c1ccccc1[S-], the activity coefficient is, setting by setting: (303.15 K) 3.21 and 3.11; (313.15 K) 3.07 and 3.03; (323.15 K) 2.98 and 2.88.

On to `C=CCCCCCC` [oct-1-ene] + CCCCCCCC[N+](C)(CCCCCCCC)CCCCCCCC.O=C(O)c1ccccc1[S-], for which the activity coefficient was 2.09 and 2.06 (303.15 K); 2.06 and 2.02 (313.15 K); 2 and 1.93 (323.15 K).

In the case of `CCCCCCCC` [octane] + CCCCCCCC[N+](C)(CCCCCCCC)CCCCCCCC.O=C(O)c1ccccc1[S-], the activity coefficient was 2.77 and 2.72 (303.15 K); 2.68 and 2.61 (313.15 K); 2.55 and 2.47 (323.15 K).

Regarding `CCCCC` [pentane] + CCCCCCCC[N+](C)(CCCCCCCC)CCCCCCCC.O=C(O)c1ccccc1[S-], the activity coefficient (303.15 K) was 1.81 ± 0.22; the activity coefficient (313.15 K) is 1.75 ± 0.22; the activity coefficient (323.15 K) was 1.7 and 1.65.

In the case of `Cc1ccccc1` [toluene] + CCCCCCCC[N+](C)(CCCCCCCC)CCCCCCCC.O=C(O)c1ccccc1[S-], the activity coefficient by setting is: (303.15 K) 0.62 and 0.59; (313.15 K) 0.62 and 0.59; (323.15 K) 0.62 and 0.58.
